Assay results as given in patent publication US6706740B2, “Fungicidal heterocyclic aromatic amides and their compositions, methods of use and preparation” (Dow AgroSciences LLC, priority 1999, dated 2004).
Where two headings read alike, the source gives them in different places.

What was measured:
Ustilago maydis (USTIMA) = test: microbe, parasite or virus in culture; assay type: cell-based; details: Mycosarcoma maydis, read-out: USTIMA in vitro Growth Inhibition
[1] = system: Rhizoctonia solani (RHIZSO); test: microbe, parasite or virus in culture; assay type: cell-based; details: Rhizoctonia solani, read-out: RHIZSO in vitro Growth Inhibition
[2] = system: Magnaporthe grisea (Pyricularia oryzae—PYRIOR); test: microbe, parasite or virus in culture; assay type: cell-based; details: Pyricularia oryzae, read-out: PYRIOR in vitro Growth Inhibition
Erysiphe graminis—ERYSGT = test: Powdery Mildew of Wheat, in vivo whole plant, 24 Hour Protectant; details: Erysiphe, read-out: ERYSGT in vivo 1 Day Protectant
Septoria tritici—SEPTTR = test: Leaf Blotch of Wheat, in vivo whole plant, 24 Hour Protectant; details: for pest or weed control at 100 ppm: Zymoseptoria tritici, 24 h, read-out: SEPTTR in vivo 1 Day Protectant
[3] = system: Stagonospora nodorum (Leptosphaeria nodorum—LEPTNO); test: In vitro fungal growth inhibition, Stagonospora nodorum (LEPTNO); assay type: cell-based; details: Leptosphaeria, read-out: LEPTNO in vitro Growth Inhibition
[4] = system: Puccinia recondita—PUCCRT; test: Brown Rust of Wheat, in vivo whole plant, 24 Hour Protectant; details: for pest or weed control at 100 ppm: Puccinia, control of fungal infection vs untreated plants, read-out: PUCCRT in vivo 1 Day Protectant; for PUCCRT in vivo 1 Day Protectant: % control of fungal infection vs untreated plants
[5] = system: Phytophthora infestans (PHYTIN); test: microbe, parasite or virus in culture; assay type: cell-based; details: Phytophthora infestans, read-out: PHYTIN in vitro Growth Inhibition
[6] = system: Mycosphaerella graminicola (Septoria tritici—SEPTTR); test: In vitro fungal growth inhibition, Mycosphaerella graminicola (SEPTTR); assay type: cell-based; details: Zymoseptoria tritici, read-out: SEPTTR in vitro Growth Inhibition
[7] = system: Phytophthora infestans—PHYTIN; test: whole plant or invertebrate; assay type: in vivo; details: Phytophthora, in Solanum lycopersicum, 24 h, read-out: PHYTIN in vivo 1 Day Protectant
[8] = system: Leptosphaeria nodorum—LEPTNO; test: Glume Blotch of Wheat, in vivo whole plant, 24 Hour Protectant; details: for pest or weed control at 100 ppm: Leptosphaeria, read-out: LEPTNO in vivo 1 Day Protectant
[9] = 100 ppm spray, wheat, 24 hour protectant, control of fungal infection vs untreated plants
[10] = 100 ppm spray, wheat, 24 hour protectant
[11] = 100 ppm spray, wheat, 24 hour protectant, % control of fungal infection vs untreated plants
[12] = wheat plants sprayed at 100 ppm, inoculated after 24 hours, control of fungal infection vs untreated plants
[13] = wheat plants sprayed at 100 ppm, inoculated after 24 hours
[14] = 100 ppm spray, 24 hour protectant, wheat, control of fungal infection vs untreated plants
[15] = 100 ppm spray, 24 hour protectant, wheat

| SMILES | inhibition at 25 ppm (Ustilago maydis (USTIMA)) [%] | inhibition at 25 ppm [1] [%] | inhibition at 25 ppm [2] [%] | inhibition at 25 ppm ([3]; 25 ppm in growth medium) [%] | inhibition at 25 ppm [5] [%] | inhibition at 25 ppm ([6]; 25 ppm in growth medium) [%] | pest or weed control at 100 ppm [7] [%] | pest or weed control at 100 ppm (Erysiphe graminis—ERYSGT; [12]) [%] | pest or weed control at 100 ppm (Septoria tritici—SEPTTR; [12]) [%] | inhibition at 25 ppm ([3]; 25 ppm in the growth medium) [%] | pest or weed control at 100 ppm [4, 13] [%] | inhibition at 25 ppm ([6]; 25 ppm in the growth medium) [%] | pest or weed control at 100 ppm [8, 12] [%] | further results |
| --- | --- | --- | --- | --- | --- | --- | --- | --- | --- | --- | --- | --- | --- | --- |
| C=C(C)C(=O)O[C@H]1[C@H](C)OC(=O)[C@@H](NC(=O)c2nccc(OC)c2O)COC(=O)[C@@H]1Cc1ccccc1 [Compound 386] | < 80 | < 80 | < 80 | > 80 | < 80 | > 80 | < 25 | – | – | – | – | – | – | pest or weed control at 100 ppm (Erysiphe graminis—ERYSGT; [9]): 25 to 74%; pest or weed control at 100 ppm (Septoria tritici—SEPTTR; [9]): 25 to 74%; pest or weed control at 100 ppm [4, 10]: 25 to 74%; LEPTNO in vivo 1 Day Protectant [8, 9]: + + |
| COc1ccnc(C(=O)N[C@H]2COC(=O)[C@H](Cc3ccccc3)[C@@H](OC(=O)C(C)C)[C@H](C)OC2=O)c1OC(=O)c1cccs1 [Compound 674] | < 80 | < 80 | < 80 | > 80 | < 80 | > 80 | < 25 | – | – | – | – | – | – | pest or weed control at 100 ppm (Erysiphe graminis—ERYSGT; [11]): < 25%; SEPTTR in vivo 1 Day Protectant (Septoria tritici—SEPTTR; [11]): + +; PUCCRT in vivo 1 Day Protectant [4, 10]: + +; pest or weed control at 100 ppm [8, 11]: 25 to 74% |
| O=C(NCc1ccccc1)c1ccncc1O [Compound 506] | < 80 | < 80 | < 80 | – | < 80 | – | < 25 | < 25 | < 25 | < 80 | < 25 | < 80 | < 25 | – |
| COc1ccnc(C(=O)NC2CC(C)(C)CC(C)(C#N)C2)c1OC(C)=O (stereo not drawn) [Compound 574] | < 80 | < 80 | < 80 | – | < 80 | – | < 25 | < 25 | 25 to 74 | < 80 | < 25 | < 80 | 25 to 74 | – |
| COC(=O)C(COC(=O)C(C)Cc1ccccc1)NC(=O)c1nccc(OC)c1O (stereo not drawn) [Compound 345] | < 80 | < 80 | < 80 | < 80 | < 80 | < 80 | < 25 | – | – | – | – | – | – | pest or weed control at 100 ppm (Erysiphe graminis—ERYSGT; [9]): < 25%; pest or weed control at 100 ppm (Septoria tritici—SEPTTR; [9]): < 25%; pest or weed control at 100 ppm [4, 10]: 25 to 74%; pest or weed control at 100 ppm [8, 9]: < 25% |
| COC(=O)C(COC(=O)C(C)c1ccccc1)NC(=O)c1nccc(OC)c1OC(C)=O (stereo not drawn) [Compound 581] | < 80 | < 80 | < 80 | – | < 80 | – | < 25 | < 25 | 25 to 74 | < 80 | < 25 | < 80 | 25 to 74 | – |
| C[C@@H](NC(=O)c1ncccc1O)c1cccc2ccccc12 [Compound 231] | < 80 | < 80 | > 80 | < 80 | < 80 | < 80 | < 25 | – | – | – | – | – | – | pest or weed control at 100 ppm (Erysiphe graminis—ERYSGT; [14]): < 25%; pest or weed control at 100 ppm (Septoria tritici—SEPTTR; [14]): < 25%; pest or weed control at 100 ppm [4, 15]: < 25%; pest or weed control at 100 ppm [8, 14]: < 25% |
| COc1ccnc(C(=O)NC2CC(C)(C)CCCC2C)c1O (stereo not drawn) [Compound 277] | < 80 | < 80 | < 80 | > 80 | < 80 | > 80 | < 25 | – | – | – | – | – | – | pest or weed control at 100 ppm (Erysiphe graminis—ERYSGT; [14]): < 25%; SEPTTR in vivo 1 Day Protectant (Septoria tritici—SEPTTR; [14]): + +; pest or weed control at 100 ppm [4, 15]: < 25%; pest or weed control at 100 ppm [8, 14]: 25 to 74% |
| COc1ccnc(C(=O)NC2CC(C)(C)/C=C\CC(C)(C)C2)c1OC(C)=O (stereo not drawn) [Compound 580] | < 80 | < 80 | < 80 | – | < 80 | – | < 25 | < 25 | 25 to 74 | < 80 | 25 to 74 | < 80 | – | LEPTNO in vivo 1 Day Protectant [8, 12]: + + |
| O=C(Nc1ccc(Oc2ccccc2C(F)(F)F)cc1)c1nc(Br)ccc1O [Compound 497] | < 80 | < 80 | < 80 | – | < 80 | – | < 25 | < 25 | 25 to 74 | < 80 | 25 to 74 | < 80 | 25 to 74 | – |
| COc1ccnc(C(=O)NC2C[C@H](C)O[C@@](C)(Cc3ccccc3)C2)c1O (stereo partly drawn) [Compound 312] | < 80 | < 80 | < 80 | < 80 | < 80 | < 80 | < 25 | – | – | – | – | – | – | pest or weed control at 100 ppm (Erysiphe graminis—ERYSGT; [14]): 25 to 74%; pest or weed control at 100 ppm (Septoria tritici—SEPTTR; [14]): 25 to 74%; pest or weed control at 100 ppm [4, 15]: < 25%; pest or weed control at 100 ppm [8, 14]: 25 to 74% |
| CC(NC(=O)c1ccncc1O)c1ccc(OC(F)(F)F)cc1 (stereo not drawn) [Compound 511] | < 80 | < 80 | < 80 | – | < 80 | – | < 25 | < 25 | < 25 | < 80 | < 25 | < 80 | < 25 | – |
| COc1ccnc(C(=O)NC2CC(C)(C)C(=O)C(C)(C)C2)c1OC(C)=O [Compound 575] | < 80 | < 80 | < 80 | – | < 80 | – | < 25 | < 25 | 25 to 74 | < 80 | 25 to 74 | < 80 | 25 to 74 | – |
| COc1ccnc(C(=O)N[C@H]2COC(=O)[C@H](Cc3ccccc3)[C@@H](OC(=O)C(C)C)[C@H](C)OC2=O)c1OC(=O)OCCBr [Compound 692] | < 80 | < 80 | > 80 | > 80 | < 80 | > 80 | < 25 | – | – | – | – | – | – | pest or weed control at 100 ppm (Erysiphe graminis—ERYSGT; [11]): < 25%; SEPTTR in vivo 1 Day Protectant (Septoria tritici—SEPTTR; [11]): + +; PUCCRT in vivo 1 Day Protectant [4, 10]: + +; LEPTNO in vivo 1 Day Protectant [8, 11]: + + |
| COc1ccnc(C(=O)Nc2cccc(Sc3ccc(C(F)(F)F)cc3)c2)c1OC(C)=O [Compound 710] | < 80 | < 80 | > 80 | > 80 | < 80 | > 80 | < 25 | – | – | – | – | – | – | pest or weed control at 100 ppm (Erysiphe graminis—ERYSGT; [11]): < 25%; SEPTTR in vivo 1 Day Protectant (Septoria tritici—SEPTTR; [11]): + +; PUCCRT in vivo 1 Day Protectant [4, 10]: + +; LEPTNO in vivo 1 Day Protectant [8, 11]: + + |
